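How tested: cells in 96-well plates exposed to compound for 48 hours at five concentrations. Abbreviation: GI50, concentration required for 50% inhibition of growth.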 Active and inactive are the calls of the source. Rule as the data show it: active = GI50 up to about 1.1 µM and inactive = higher.
Key:
Experiment in all cases: inhibition of tumour cell growth, NCI panel, 48 h
MCF7 = test system: MCF7
MDA-MB-231 = test system: MDA-MB-231
NCI-H23 = test system: NCI-H23
COLO 205 = test system: COLO 205
HCC 2998 = test system: HCC 2998
HCT-15 = test system: HCT-15
SF-268 = test system: SF-268
SNB-75 = test system: SNB-75
SK-MEL-2 = test system: SK-MEL-2
SN12C = test system: SN12C
HCT-116 = test system: HCT-116
UACC-62 = test system: UACC-62
SNB-19 = test system: SNB-19
EKVX = test system: EKVX
M14 = test system: M14
PC-3 = test system: PC-3
UACC-257 = test system: UACC-257
IGROV-1 = test system: IGROV-1
T47D = test system: T47D
A498 = test system: A498

| SMILES | GI50 (MCF7) | GI50 (MDA-MB-231) | GI50 (NCI-H23) | GI50 (COLO 205) | GI50 (HCC 2998) | GI50 (HCT-15) [µM] | GI50 (SF-268) | GI50 (SNB-75) | GI50 (SK-MEL-2) | GI50 (SN12C) | GI50 (HCT-116) | GI50 (UACC-62) | GI50 (SNB-19) | GI50 (EKVX) | GI50 (M14) | GI50 (PC-3) | GI50 (UACC-257) | GI50 (IGROV-1) | GI50 (T47D) | GI50 (A498) |
| --- | --- | --- | --- | --- | --- | --- | --- | --- | --- | --- | --- | --- | --- | --- | --- | --- | --- | --- | --- | --- |
| C=C(C)[C@@H]1CCc2c(c(C)cc(O)c(=O)c2O)C1 | 1.48 µM (inactive) | > 52.1 µM (inactive) | 2.58 µM (inactive) | 1.63 µM (inactive) | 1.76 µM (inactive) | 0.0838 | 2.88 µM (inactive) | 3.68 µM (inactive) | 4.79 µM (inactive) | 0.363 µM (active) | 0.156 µM (active) | 1.6 µM (inactive) | 1.13 µM (inactive) | 2.49 µM (inactive) | 1.47 µM (inactive) | 3.85 µM (inactive) | 6.81 µM (inactive) | 0.179 µM (active) | 3.8 µM (inactive) | – |
| C=CC1(c2ccc(Cl)c(Cl)c2)OCCO1 | > 100 µM (inactive) | 1.83 µM (inactive) | 45.8 µM (inactive) | > 100 µM (inactive) | > 100 µM (inactive) | > 100 | > 100 µM (inactive) | 1.48 µM (inactive) | 79.4 µM (inactive) | > 100 µM (inactive) | 97.7 µM (inactive) | > 100 µM (inactive) | > 100 µM (inactive) | > 100 µM (inactive) | > 100 µM (inactive) | > 100 µM (inactive) | > 100 µM (inactive) | > 100 µM (inactive) | > 100 µM (inactive) | – |
| CC(C)(C)[Si](C)(C)OC1/C(=C/C#N)C(n2ccc(=O)[nH]c2=O)OC1CO (stereo not given) | > 100 µM (inactive) | > 100 µM (inactive) | > 100 µM (inactive) | > 100 µM (inactive) | – | – | > 100 µM (inactive) | – | > 100 µM (inactive) | – | > 100 µM (inactive) | > 100 µM (inactive) | > 100 µM (inactive) | – | > 100 µM (inactive) | > 100 µM (inactive) | – | – | > 100 µM (inactive) | > 100 µM (inactive) |
| CSc1ncnc2c1CCN2 | 6.34 µM (inactive) | > 10 µM (inactive) | 4.51 µM (inactive) | 8.85 µM (inactive) | > 10 µM (inactive) | > 100 | > 10 µM (inactive) | > 10 µM (inactive) | 5.86 µM (inactive) | > 100 µM (inactive) | 6.07 µM (inactive) | 3.81 µM (inactive) | > 10 µM (inactive) | > 10 µM (inactive) | > 10 µM (inactive) | > 10 µM (inactive) | 3.83 µM (inactive) | > 10 µM (inactive) | > 10 µM (inactive) | – |
| COc1cc2c(/C=C3/C(=O)Nc4ccc(Cl)cc43)c(Cl)[nH]c2cc1C | 0.489 µM (active) | 0.74 µM (active) | 0.916 µM (active) | 0.352 µM (active) | – | 0.449 | 1.03 µM (active) | 0.215 µM (active) | 0.966 µM (active) | 0.325 µM (active) | 0.794 µM (active) | 0.288 µM (active) | 0.408 µM (active) | – | 0.962 µM (active) | 0.505 µM (active) | 0.553 µM (active) | 0.368 µM (active) | 4.39 µM (inactive) | 10.6 µM (inactive) |
| Cc1cc(S(=O)(=O)NC2=Nc3ccccc3C(c3ccccc3)N2)c(S)cc1Cl (stereo not given) | > 100 µM (inactive) | 95.3 µM (inactive) | > 100 µM (inactive) | > 100 µM (inactive) | > 100 µM (inactive) | 59.3 | 39 µM (inactive) | > 100 µM (inactive) | – | 50.7 µM (inactive) | 7.13 µM (inactive) | > 100 µM (inactive) | 34 µM (inactive) | > 100 µM (inactive) | > 100 µM (inactive) | 16.4 µM (inactive) | > 100 µM (inactive) | > 100 µM (inactive) | 6.56 µM (inactive) | > 100 µM (inactive) |
| CCOC(=O)c1c[nH]c2c(Sc3ccccc3)nccc2c1=O | 71.4 µM (inactive) | 53.1 µM (inactive) | 32.4 µM (inactive) | > 100 µM (inactive) | – | > 100 | > 100 µM (inactive) | 71.1 µM (inactive) | > 100 µM (inactive) | > 100 µM (inactive) | 73.6 µM (inactive) | 36.7 µM (inactive) | > 100 µM (inactive) | > 100 µM (inactive) | > 100 µM (inactive) | > 100 µM (inactive) | > 100 µM (inactive) | 21.7 µM (inactive) | 18.3 µM (inactive) | > 100 µM (inactive) |
| Cc1c(O)nc(/C=C/C(=O)O)nc1C(=O)O | > 100 µM (inactive) | > 100 µM (inactive) | > 100 µM (inactive) | > 100 µM (inactive) | – | > 100 | > 100 µM (inactive) | > 100 µM (inactive) | > 100 µM (inactive) | > 100 µM (inactive) | > 100 µM (inactive) | > 100 µM (inactive) | > 100 µM (inactive) | > 100 µM (inactive) | > 100 µM (inactive) | > 100 µM (inactive) | > 100 µM (inactive) | > 100 µM (inactive) | > 100 µM (inactive) | > 100 µM (inactive) |

From ChEMBL document CHEMBL1201862, “PubChem BioAssay data set” (2004)
